Values of other authors, collected in US20210361582A1, “COLCHICINE SALICYLATE DERIVATIVES AND METHODS OF TREATMENT” (Murray and Poole Enterprises, LTD., priority 2015, published 2021).

Legend:
[1] = at 18 months; 84 patients; aspirin alone vs plus colchicine 1.0-2.0 mg first day then 0.5-1.0 mg/d for 6 months
[2] = at 18 months; 120 patients; conventional treatment with aspirin vs plus colchicine 1.0 to 2.0 mg first day then 0.5 to 1.0 mg/day for 3 months; p=0.004
[3] = in vivo
[4] = colchicine 0.5 mg/day in addition to statins and other standard secondary prevention therapies; 532 patients; median 3 years

| Structure (SMILES) | recurrence rate (actuarial rates) [1] [%] | recurrence rate (primary end point) [2] [%] | bioavailability, inter patient variations ([3]; human) | bioavailability [3] | second peak (resorption from colon), share of totally absorbed colchicine [3] | prevention of cardiovascular events [4] |
| --- | --- | --- | --- | --- | --- | --- |
| CC(=O)Oc1ccccc1C(=O)O [aspirin] | 50.6 | 32.3 |  |  |  |  |
| COc1cc2c(c(OC)c1OC)-c1ccc(OC)c(=O)cc1[C@@H](NC(C)=O)CC2 [colchicine, N[5,6,7,9-tetrahydro-1,2,3,10-tetratmethoxy 9-oxobenzo[a]heptalen-7-yl],(S)-acetamide] | 24.0 | 10.7 | 20-80% | ca. 45% | about 50% | appeared effective |
